Laboratory results: ChEMBL document CHEMBL4049397, “Design, synthesis and evaluation of derivatives based on pyrimidine scaffold as potent Pan-Raf inhibitors to overcome resistance” (Eur J Med Chem, 2017)

Test: in vitro
Settings: human, liver microsomes

## CNC(=O)c1cc(Oc2ccc(NC(=O)Nc3ccc(Cl)c(C(F)(F)F)c3)cc2)ccn1 [SORAFENIB]
  half-life at 0.5 µM: 5.6 h
